Our source for the Activity and EC50 values is ChEMBL document CHEMBL5030565, “Stapled Peptides Targeting SARS-CoV-2 Spike Protein HR1 Inhibit the Fusion of Virus to Its Cell Receptor” (J Med Chem, 2021).

Assay [1] deals with SARS-CoV-2. Kind of assay: Antiviral activity against pseudotyped SARS-CoV-2 infected in Huh7 cells expressing hACE2 at 10 uM preincubated for 1 hr followed by cell infection measured after 2 days by bright-Glo luciferase assay. In kind it is functional, Severe acute respiratory syndrome coronavirus 2, Huh-7. The note with it: time 49 hrs.
The subject of assay [2] is SARS-CoV-2. Kind of assay: Antiviral activity against SARS-CoV-2 infected in Vero E6 cells assessed as reduction in viral replication at 12.5 uM preincubated for 30 mins followed by viral infection measured after 72 hrs by crystal violet staining based plaque assay. In kind it is functional, Severe acute respiratory syndrome coronavirus 2. Further details: scale not given: the % may be the effect or the level left.

For assay [3], the system named is SARS-CoV-2. The assay can be described thus: Antiviral activity against pseudotyped SARS-CoV-2 infected in Huh7 cells expressing hACE2 preincubated for 1 hr followed by cell infection measured after 2 days by bright-Glo luciferase assay. The note with it: Severe acute respiratory syndrome coronavirus 2, Huh-7. It is filed as functional, organism-based.

Regarding `CC[C@H](C)[C@H](NC(=O)CNC(=O)[C@H](CO)NC(=O)[C@@H](NC(=O)[C@H](CC(=O)O)NC(C)=O)[C@@H](C)CC)C(=O)N[C@@H](CC(N)=O)C(=O)N[C@@H](C)C(=O)N[C@@H](CO)C(=O)N[C@H](C(=O)N[C@H](C(=O)N[C@@H](CC(N)=O)C(=O)N[C@H](C(=O)N[C@@H](CCC(N)=O)C(=O)N[C@@]1(C)CCC/N=C\CCC[C@@](C)(C(=O)N[C@@H](CC(C)C)C(=O)N[C@@H](CC(N)=O)C(=O)N[C@@H](CCC(=O)O)C(=O)N[C@H](C(=O)N[C@@H](C)C(=O)N[C@@H](CCCCN)C(=O)N[C@@H](CC(N)=O)C(=O)N[C@@H](CC(C)C)C(=O)N[C@@H](CC(N)=O)C(=O)N[C@@H](CCC(=O)O)C(=O)N[C@@H](CO)C(=O)N[C@@H](CC(C)C)C(=O)N[C@H](C(=O)N[C@@H](CC(=O)O)C(=O)N[C@@H](CC(C)C)C(=O)N[C@@H](CCC(N)=O)C(=O)N[C@@H](CCC(=O)O)C(=O)N[C@@H](CC(C)C)C(N)=O)[C@@H](C)CC)C(C)C)NC(=O)[C@H](CC(=O)O)NC(=O)[C@H]([C@@H](C)CC)NC(=O)[C@H](CCC(=O)O)NC1=O)[C@@H](C)CC)C(C)C)C(C)C`, the Activity with SARS-CoV-2 [1] was 16.1%; in the assay on SARS-CoV-2 [2], 28.5%.

In the case of `CC[C@H](C)[C@H](NC(=O)CNC(=O)[C@H](CO)NC(=O)[C@@H](NC(=O)[C@H](CC(=O)O)NC(C)=O)[C@@H](C)CC)C(=O)N[C@@H](CC(N)=O)C(=O)N[C@@H](C)C(=O)N[C@@H](CO)C(=O)N[C@H](C(=O)N[C@H](C(=O)N[C@@H](CC(N)=O)C(=O)N[C@H](C(=O)N[C@@H](CCC(N)=O)C(=O)N[C@@H](CCCCN)C(=O)N[C@@]1(C)CCC/C=C\CCC[C@@](C)(C(=O)N[C@@H](CC(N)=O)C(=O)N[C@@H](CCC(=O)O)C(=O)N[C@H](C(=O)N[C@@H](C)C(=O)N[C@@H](CCCCN)C(=O)N[C@@H](CC(N)=O)C(=O)N[C@@H](CC(C)C)C(=O)N[C@@H](CC(N)=O)C(=O)N[C@@H](CCC(=O)O)C(=O)N[C@@H](CO)C(=O)N[C@@H](CC(C)C)C(=O)N[C@H](C(=O)N[C@@H](CC(=O)O)C(=O)N[C@@H](CC(C)C)C(=O)N[C@@H](CCC(N)=O)C(=O)N[C@@H](CCC(=O)O)C(=O)N[C@@H](CC(C)C)C(N)=O)[C@@H](C)CC)C(C)C)NC(=O)[C@H](CCCNC(=N)N)NC(=O)[C@H](CC(=O)O)NC(=O)[C@H]([C@@H](C)CC)NC1=O)[C@@H](C)CC)C(C)C)C(C)C`, the Activity is recorded as 39.8% with SARS-CoV-2 [1] and 32% in the assay on SARS-CoV-2 [2].

With `CC[C@H](C)[C@H](NC(=O)CNC(=O)[C@H](CO)NC(=O)[C@@H](NC(=O)[C@H](CC(=O)O)NC(C)=O)[C@@H](C)CC)C(=O)N[C@@H](CC(N)=O)C(=O)N[C@@H](C)C(=O)N[C@@H](CO)C(=O)N[C@H](C(=O)N[C@H](C(=O)N[C@@H](CC(N)=O)C(=O)N[C@H](C(=O)N[C@@H](CCC(N)=O)C(=O)N[C@@H](CCCCN)C(=O)N[C@@H](CCC(=O)O)C(=O)N[C@H](C(=O)N[C@@H](CC(=O)O)C(=O)N[C@@]1(C)CCC/C=C\CCC[C@@](C)(C(=O)N[C@@H](C)C(=O)N[C@@H](CCCCN)C(=O)N[C@@H](CC(N)=O)C(=O)N[C@@H](CC(C)C)C(=O)N[C@@H](CC(N)=O)C(=O)N[C@@H](CCC(=O)O)C(=O)N[C@@H](CO)C(=O)N[C@@H](CC(C)C)C(=O)N[C@H](C(=O)N[C@@H](CC(=O)O)C(=O)N[C@@H](CC(C)C)C(=O)N[C@@H](CCC(N)=O)C(=O)N[C@@H](CCC(=O)O)C(=O)N[C@@H](CC(C)C)C(N)=O)[C@@H](C)CC)NC(=O)[C@H](CCC(=O)O)NC(=O)[C@H](CC(N)=O)NC(=O)[C@H](CC(C)C)NC1=O)[C@@H](C)CC)[C@@H](C)CC)C(C)C)C(C)C`, the Activity worked out at 36.8% in the assay on SARS-CoV-2 [1] and 41% in the assay with SARS-CoV-2 [2].

With `CC[C@H](C)[C@H](NC(=O)CNC(=O)[C@H](CO)NC(=O)[C@@H](NC(=O)[C@H](CC(=O)O)NC(C)=O)[C@@H](C)CC)C(=O)N[C@@H](CC(N)=O)C(=O)N[C@@H](C)C(=O)N[C@@H](CO)C(=O)N[C@H](C(=O)N[C@H](C(=O)N[C@@H](CC(N)=O)C(=O)N[C@H](C(=O)N[C@@H](CCC(N)=O)C(=O)N[C@@H](CCCCN)C(=O)N[C@@H](CCC(=O)O)C(=O)N[C@H](C(=O)N[C@@]1(C)CCC/C=C\CCC[C@@](C)(C(=O)N[C@H](C(=O)N[C@@H](C)C(=O)N[C@@H](CCCCN)C(=O)N[C@@H](CC(N)=O)C(=O)N[C@@H](CC(C)C)C(=O)N[C@@H](CC(N)=O)C(=O)N[C@@H](CCC(=O)O)C(=O)N[C@@H](CO)C(=O)N[C@@H](CC(C)C)C(=O)N[C@H](C(=O)N[C@@H](CC(=O)O)C(=O)N[C@@H](CC(C)C)C(=O)N[C@@H](CCC(N)=O)C(=O)N[C@@H](CCC(=O)O)C(=O)N[C@@H](CC(C)C)C(N)=O)[C@@H](C)CC)C(C)C)NC(=O)[C@H](CC(N)=O)NC(=O)[C@H](CC(C)C)NC(=O)[C@H](CCCNC(=N)N)NC1=O)[C@@H](C)CC)[C@@H](C)CC)C(C)C)C(C)C`, the values for the Activity in the assay with SARS-CoV-2 [1] and with SARS-CoV-2 [2] were 27.8% and 35%, respectively.

As to `CC[C@H](C)[C@H](NC(=O)CNC(=O)[C@H](CO)NC(=O)[C@@H](NC(=O)[C@H](CC(=O)O)NC(C)=O)[C@@H](C)CC)C(=O)N[C@@H](CC(N)=O)C(=O)N[C@@H](C)C(=O)N[C@@H](CO)C(=O)N[C@H](C(=O)N[C@H](C(=O)N[C@@H](CC(N)=O)C(=O)N[C@H](C(=O)N[C@@]1(C)CCC/C=C\CCC[C@@](C)(C(=O)N[C@@H](CCCNC(=N)N)C(=O)N[C@@H](CC(C)C)C(=O)N[C@@H](CC(N)=O)C(=O)N[C@@H](CCC(=O)O)C(=O)N[C@H](C(=O)N[C@@H](C)C(=O)N[C@@H](CCCCN)C(=O)N[C@@H](CC(N)=O)C(=O)N[C@@H](CC(C)C)C(=O)N[C@@H](CC(N)=O)C(=O)N[C@@H](CCC(=O)O)C(=O)N[C@@H](CO)C(=O)N[C@@H](CC(C)C)C(=O)N[C@H](C(=O)N[C@@H](CC(=O)O)C(=O)N[C@@H](CC(C)C)C(=O)N[C@@H](CCC(N)=O)C(=O)N[C@@H](CCC(=O)O)C(=O)N[C@@H](CC(C)C)C(N)=O)[C@@H](C)CC)C(C)C)NC(=O)[C@H]([C@@H](C)CC)NC(=O)[C@H](CCC(=O)O)NC(=O)[C@H](CCCCN)NC1=O)[C@@H](C)CC)C(C)C)C(C)C`, the Activity amounted to 47.6% in the assay on SARS-CoV-2 [1] and 35% with SARS-CoV-2 [2].

As a reminder, the EC50 is the concentration at which the effect is half-maximal. Consider `CC[C@H](C)[C@H](NC(=O)CNC(=O)[C@H](CO)NC(=O)[C@@H](NC(=O)[C@H](CC(=O)O)NC(C)=O)[C@@H](C)CC)C(=O)N[C@@H](CC(N)=O)C(=O)N[C@@H](C)C(=O)N[C@@H](CO)C(=O)N[C@H](C(=O)N[C@H](C(=O)N[C@@H](CC(N)=O)C(=O)N[C@H](C(=O)N[C@@H](CCC(N)=O)C(=O)N[C@@H](CCCCN)C(=O)N[C@@H](CCC(=O)O)C(=O)NC1(C)CCC/C=C\CCCC(C)(C(=O)NC(CCC(=O)O)C(=O)N[C@H](C(=O)N[C@@H](C)C(=O)N[C@@H](CCCCN)C(=O)N[C@@H](CC(N)=O)C(=O)N[C@@H](CC(C)C)C(=O)N[C@@H](CC(N)=O)C(=O)N[C@@H](CCC(=O)O)C(=O)N[C@@H](CO)C(=O)N[C@@H](CC(C)C)C(=O)N[C@H](C(=O)N[C@@H](CC(=O)O)C(=O)N[C@@H](CC(C)C)C(=O)N[C@@H](CCC(N)=O)C(=O)N[C@@H](CCC(=O)O)C(=O)N[C@@H](CC(C)C)C(N)=O)[C@@H](C)CC)C(C)C)NC(=O)[C@H](CC(C)C)NC(=O)[C@H](CCCNC(=N)N)NC(=O)[C@H](CC(=O)O)NC1=O)[C@@H](C)CC)C(C)C)C(C)C` (stereo not given in full), for which the Activity is listed as 50.8% in the assay with SARS-CoV-2 [1] and 25% with SARS-CoV-2 [2]. The compound also showed an EC50 in the assay with SARS-CoV-2 [3] of 14.6 µM.

Regarding `CC[C@H](C)[C@H](NC(=O)CNC(=O)[C@H](CO)NC(=O)[C@@H](NC(=O)[C@H](CC(=O)O)NC(C)=O)[C@@H](C)CC)C(=O)N[C@@H](CC(N)=O)C(=O)N[C@@H](C)C(=O)N[C@@H](CO)C(=O)N[C@H](C(=O)N[C@H](C(=O)N[C@@H](CC(N)=O)C(=O)N[C@H](C(=O)N[C@@H](CCC(N)=O)C(=O)N[C@@H](CCCCN)C(=O)N[C@@H](CCC(=O)O)C(=O)N[C@H](C(=O)N[C@@H](CC(=O)O)C(=O)N[C@@H](CCCNC(=N)N)C(=O)N[C@@]1(C)CCC/C=C\CCC[C@@](C)(C(=O)N[C@@H](CCCCN)C(=O)N[C@@H](CC(N)=O)C(=O)N[C@@H](CC(C)C)C(=O)N[C@@H](CC(N)=O)C(=O)N[C@@H](CCC(=O)O)C(=O)N[C@@H](CO)C(=O)N[C@@H](CC(C)C)C(=O)N[C@H](C(=O)N[C@@H](CC(=O)O)C(=O)N[C@@H](CC(C)C)C(=O)N[C@@H](CCC(N)=O)C(=O)N[C@@H](CCC(=O)O)C(=O)N[C@@H](CC(C)C)C(N)=O)[C@@H](C)CC)NC(=O)[C@H](C(C)C)NC(=O)[C@H](CCC(=O)O)NC(=O)[C@H](CC(N)=O)NC1=O)[C@@H](C)CC)[C@@H](C)CC)C(C)C)C(C)C`, the Activity is listed as 25.1% in the assay on SARS-CoV-2 [1] and 33.5% in the assay on SARS-CoV-2 [2].
